The results in this text go back to patent US20120004122A1, “Diagnostic Marker for Migraine and Use Thereof” (priority 2005, published 2012).

The subject of the assay is α-fodrin gene. Description: α-fodrin gene expression in lymphocyte-derived immortalized cells before and after drug administration (real-time PCR). Particulars: EB virus-immortalized cells derived from lymphocytes of the migraine group and the healthy group; before vs after administration of the drug to cells in culture; FIG. 2. The format is cell-based, human.
Description: Peripheral bloods were harvested from 5 patients having an aura of migraine, as diagnosed according to the International Classification of Headache Disorders 2nd Edition (ICHD-II) of the International Headache Society as well as from 5 healthy subjects constituting a control group who are matched with the 5 patients in terms of age and sex. From the migraine subjects, their bloods were drawn during an interval between migraine attacks. Their lymphocytes were isolated by centrifugation from the peripheral bloods collected from each group.
The lymphocytes of each group were infected by adding 1 mL of EB virus supernatant (the culture supernatant of B958 cells, EB virus-producing cells) to the lymphocytes at 2×10^6 cells and 2 μL of 100-fold diluted cyclosporin solution (original solution of cyclosporin (Sandimmun 1A (5 ml) 250 mg) to the lymphocytes at 2×10^6 cells, followed by incubation in RPMI(+) medium for about four days. Then, cell lines established by continuous passaging in the same medium were used as the lymphocyte-derived immortalized cells in the present invention. These immortalized cells were used for the following experiments under the same conditions of culture condition, number of passages, etc.
Thus, the gene expression levels of α-fodrin and HPCAL1 were examined by performing quantitative real-time PCR using immortalized lymphocytes obtained from the migraine and healthy subjects as samples. […] The expression level of each gene was relatively quantified by the comparative Ct (threshold cycle) method based on the amplification curve obtained from the PCR.
Immortalized cells derived from lymphocytes of the migraine group and the healthy group were subjected to mRNA expression analysis in the same manner as described above. […] By using part of the immortalized cells before and after the administration of each drug, the expression level of α-fodrin gene was analyzed.
With `NC(N)=Nc1nc(CSCCC(N)=NS(N)(=O)=O)cs1` [Gaster, famotidine], the “expression level of α-fodrin gene” value is “increased the expression level of α-fodrin”. The same measure for `CC(=O)Oc1ccccc1C(=O)O` [aspirin]: “reduced the expression level of α-fodrin”. Under `CNS(=O)(=O)Cc1ccc2[nH]cc(CCN(C)C)c2c1` [sumatriptan] stands “reduced the expression level of α-fodrin”.
